Test results published in patent publication US4943570A, “Benzimidazolesulfonamides and imidazopyridinesulfonamides, and their application as drugs” (Laboratorios Del Dr. Esteve, S.A., priority 1986, dated 1990).

Test system: gastric acid secretion
Test: Inhibition of gastric acid secretion in Shay rats (Shay's method, pylorus ligation)
Format: in vivo, Male Wistar rats
Conditions: Rattus norvegicus, administered intraduodenally; for ED50: 2 h; for inhibition in vivo at 40 mg/kg: intraduodenal, 2 h after pylorus ligation, read-out: Percentage inhibition of gastric acid secretion
Source text: Shay's method [H. Shay; S. A. Komarov; S. S. Fels; D. Merange: M. Grvenstein; H. Siplet: Gastroenterology, 5, 43 (1945)--F. E. Visscber; P. H. Seay: A. P. Taxelaar; W. Veldkamp; M. J. Vander Brook: J. Pharmac. Exp. Ther., 110, 188 (1954)--"Animal Experiments in Pharmacological Analysis", F. R. Domer: C. C. Thomas, published by Springfield, Ill., U.S.A., 1970, p. 140].
Male Wistar rats weighing 200 to 250 grams are used in this test; they are fasted from the day preceding the day of the test, with free access to water. Groups containing a minimum of 4 animals each are used.
The rats are anesthetized with ethyl ether, a laparotomy is performed on them and their pylorus is ligated; the abdominal incision is then sewn up. The administration of the products, with the vehicle for the control group, is effected intraduodenally (i.d.) before the abdominal incision is sewn up. The dose administered in the first test is 40 mg/kg and the 50% effective dose (ED50), administered intraduodenally, is also determined in a second test. The vehicle used is gum arabic at a concentration of 5% w/v in double-distilled water.
Two hours after ligation of the pylorus, the rats are sacrificed by prolonged anesthesia with ethyl ether and the volume of gastric juice is measured; the total acidity is determined by means of a pH meter equipped with an automatic burette. For each product and each dose tested, the percentage inhibition of gastric acid secretion is determined relative to the control group.

Structure (SMILES)	ED50	inhibition in vivo at 40 mg/kg
CCNS(=O)(=O)c1nc2cc(C(=O)c3ccccc3)ccc2[nH]1 [Example 1, 5-benzoyl-N-ethyl-1H-benzimidazole-2-sulfonamide]	22.4 mg/kg	78.7%
O=S(=O)(Nc1ccccn1)c1nc2ccccc2[nH]1 [Example 5, N-(2-Pyridyl)-1H-benzimidazole-2-sulfonamide]	10.8 mg/kg	96.4%
COc1ccc(CCNS(=O)(=O)c2nc3ccccc3[nH]2)cc1OC [Example 11, N-[2-(3,4-Dimethoxyphenylethyl)]-1H-benzimidazole-2-sulfonamide]	42 mg/kg	48.8%
CCCCNS(=O)(=O)c1nc2ccccc2[nH]1 [Example 14, N-Butyl-1H-benzimidazole-2-sulfonamide]	30.6 mg/kg	61.4%
CCNS(=O)(=O)c1nc2cc(C(F)(F)F)ccc2[nH]1 [Example 26, N-Ethyl-5-trifluoromethyl-1H-benzimidazole-2-sulfonamide]	38.5 mg/kg	53%
O=S(=O)(c1nc2ccccc2[nH]1)N1CCCCC1CO (centres unmarked) [Example 28, 2-(Sulfonyl-2-hydroxymethyl-1-piperidinyl)-1H-benzimidazole]	38.5 mg/kg	51.4%
COc1ccc(CNS(=O)(=O)c2nc3ccccc3[nH]2)cc1 [Example 29, N-(4-Methoxybenzyl)-1H-benzimidazole-2-sulfonamide]	37.9 mg/kg	54.2%
O=[N+]([O-])c1ccc2[nH]c(S(=O)(=O)NCCN3CCOCC3)nc2c1 [Example 36, N-[2-(4-Morpholinoethyl)]-5-nitro-1H-benzimidazole-2-sulfonamide]	65.6 mg/kg	40%
CCNS(=O)(=O)c1nc2ccccc2n1CC [Example 62, 1,N-diethyl-1H-benzimidazole-2-sulfonamide]	31 mg/kg	52.4%
CCN(CC)S(=O)(=O)c1nc2ccccc2n1CC [Example 63, 1,N,N-Triethyl-1H-benzimidazole-2-sulfonamide]	49.2 mg/kg	52%
CCN(CC)CCCC(C)NS(=O)(=O)c1nc2cc(Cl)ccc2n1CC (centres unmarked) [Example 68, 5-Chloro-N-(4-diethylamino-1-methylbutyl)-1-ethyl-1H-benzimidazole-2-sulfonamide]	39.7 mg/kg	53.8%
CCN(CC)CCCC(C)NS(=O)(=O)c1nc2ccc(Cl)cc2n1CC (centres unmarked) [Example 69, 6-Chloro-N-(4-diethylamino-1-methylbutyl)-1-ethyl-1H-benzimidazole-2-sulfonamide]	39.2 mg/kg	54.3%
CCN(CC)CCCC(C)N(CC)S(=O)(=O)c1nc2cc(Cl)ccc2n1CC (centres unmarked) [Example 73, 5-Chloro-1,N-diethyl-N-(4-diethylamino-1-methylbutyl)-1H-benzimidazole-2-sulfonamide]	18.5 mg/kg	77.5%
CCN(CC)CCCC(C)N(CC)S(=O)(=O)c1nc2ccc(Cl)cc2n1CC (centres unmarked) [Example 74, 6-Chloro-1,N-diethyl-N-(4-diethylamino-1-methylbutyl)-1H-benzimidazole-2-sulfonamide]	17.9 mg/kg	76.4%
CCN1CCCn2c(nc3ccccc32)S1(=O)=O [Example 90, 3,4,5-Trihydro-2H-2-ethyl-[1,2,6]-thiadiazepino[6,7-a]-benzimidazole 1,1-dioxide]	64 mg/kg	51.4%
CCCCN1CCn2c(nc3ccccc32)S1(=O)=O [Example 100, 2H-2-Butyl-3,4-Dihydro-[1,2,5]-thiadiazino[5,6-a]-benzimidazole 1,1-dioxide]	37.6 mg/kg	51.8%
CCN(CC)CCCC(C)N1CCn2c(nc3cc(Cl)ccc32)S1(=O)=O (centres unmarked) [Example 102, 8-Chloro-3,4-dihydro-2H-2-(4-diethylamino-1-methylbutyl)-[1,2,5]-thiadiazino[5,6-a]benzimidazole 1,1-dioxide]	14.1 mg/kg	71.4%

Structure (SMILES)	ED50	inhibition in vivo at 40 mg/kg
CCN(CC)CCCC(C)N1CCn2c(nc3ccc(Cl)cc32)S1(=O)=O (centres unmarked) [Example 103, 7-chloro-3,4-dihydro-2H-2-(4-diethylamino-1-methylbutyl)-[1,2,5]-thiadiazino[5,6-a]benzimidazole 1,1-dioxide]	15 mg/kg	72.3%
CCN1CCn2c(nc3cc(C(=O)c4ccccc4)ccc32)S1(=O)=O [Example 115, 8-Benzoyl-3,4-dihydro-2H-2-ethyl-[1,2,5]-thiadiazino-[5,6-a]benzimidazole 1,1-dioxide]	38.9 mg/kg	51.1%
CCN1CCn2c(nc3ccc(C(=O)c4ccccc4)cc32)S1(=O)=O [Example 116, 7-Benzoyl-3,4-dihydro-2H-2-ethyl-[1,2,5]-thiadiazino-[5,6-a]benzimidazole 1,1-dioxide]	39.4 mg/kg	50.3%
O=[N+]([O-])c1ccc2c(c1)nc1n2CCN(CCCN2CCOCC2)S1(=O)=O [Example 141, 3,4-Dihydro-2H-2-[3-(4-morpholinopropyl)]-8-nitro-[1,2,5]-thiadiazino[5,6-a]benzimidazole 1,1-dioxide]	16.3 mg/kg	80.9%
CCN(CC)CCCC(C)N1CCn2c(nc3cc([N+](=O)[O-])ccc32)S1(=O)=O (centres unmarked) [Example 143, 2H-2-(4-Diethylamino-1-methylbutyl)-3,4-dihydro-8-nitro-[1,2,5]-thiadiazino[5,6-a]benzimidazole 1,1-dioxide]	20.5 mg/kg	99.3%
O=[N+]([O-])c1ccc2c(c1)nc1n2CCNS1(=O)=O [Example 145, 3,4-Dihydro-2H-8-nitro-[1,2,5]-thiadiazino[5,6-a]-benzimidazole 1,1-dioxide]	19.8 mg/kg	68.7%
O=[N+]([O-])c1ccc2nc3n(c2c1)CCNS3(=O)=O [Example 146, 3,4-Dihydro-2H-7-nitro-[1,2,5]-thiadiazino[5,6-a]-benzimidazole 1,1-dioxide]	20.3 mg/kg	67.5%
O=[N+]([O-])c1ccc2c(c1)nc1n2CCN(C23CC4CC(CC(C4)C2)C3)S1(=O)=O [Example 147, 2H-2-(1-Adamantyl)-3,4-dihydro-8-nitro-[1,2,5]-thiadiazino[5,6-a]benzimidazole 1,1-dioxide]	44 mg/kg	46.5%
O=[N+]([O-])c1ccc2nc3n(c2c1)CCN(C12CC4CC(CC(C4)C1)C2)S3(=O)=O [Example 148, 2H-2-(1-Adamantyl)-3,4-dihydro-7-nitro-[1,2,5]-thiadiazino[5,6-a]benzimidazole 1,1-dioxide]	46 mg/kg	45.3%
CCN1CCn2c(nc3ccc(N)cc32)S1(=O)=O [Example 149, 7-amino-3,4-dihydro-2H-2-ethyl-[1,2,5]-thiadiazino[5,6-a]benzimidazole 1,1 dioxide]	32.6 mg/kg	64%
CCN1CCn2c(nc3ccc(NC(C)=O)cc32)S1(=O)=O [Example 150, 7-acetylamino-3,4-dihydro-2H-2-ethyl-[1,2,5]-thiadiazino[5,6-a]benzimidazole 1,1-dioxide]	41.6 mg/kg	53.4%
CCN1C(C)Cn2c(nc3ccccc32)S1(=O)=O (centres unmarked) [Example 170, 3,4-Dihydro-2H-2-ethyl-3-methyl-[1,2,5]-thiadiazino[5,6-a]benzimidazole 1,1-dioxide]	21.8 mg/kg	73.2%
CCCCN1CCn2c(nc3cccnc32)S1(=O)=O [Example 173, 2H-2-Butyl-3,4-Dihydropyrido[3', 2':4,5]imidazo[1,2-e]-[1,2,5]-thiadiazine 1,1-dioxide]	39.2 mg/kg	57.1%
CCN1C(c2ccccc2)=Cn2c(nc3ccccc32)S1(=O)=O [Example 177, 2H-2-ethyl-3-phenyl-[1,2,5]-thiadiazino[5,6-a]benzimidazole 1,1-dioxide]	38.1 mg/kg	53.7%
O=S1(=O)c2nc3ccccc3n2CC2CCCCN21 (centres unmarked) [Example 180, 1,2,3,4,13,14-hexahydropyrido-[1',2':2,3]-[1,2,5]-thiadiazino[5,6-a]-benzimidazole 6,6-dioxide]	43.7 mg/kg	43.8%
O=[N+]([O-])c1ccc2c(c1)nc1n2CC2CCCCN2S1(=O)=O (centres unmarked) [Example 181, 1,2,3,4,13,14-Hexahydro-9-nitropyrido[1',2':2,3]-[1,2,5-thiadiazino5,6-a]benzimidazole 6,6-dioxide]	62 mg/kg	43.4%
O=[N+]([O-])c1ccc2nc3n(c2c1)CC1CCCCN1S3(=O)=O (centres unmarked) [Example 182, 1,2,3,4,13,14-Hexahydro-10-nitropyrido[1',2':2,3]-[1,2,5]-thiadiazino[5,6-a]benzimidazole 6,6-dioxide]	61.2 mg/kg	42.1%
